In brackets after ≈: the same amount, converted by molar mass.

Test [1] concerns M. pneumoniae wild type (laboratory strain M129). The experiment in a line: Mpn growth inhibition in 96-well plates (growth index A450/A560), wild type strain. In kind it is cell-based, Mycoplasma pneumoniae. The note with it: for MIC (Mpn growth): as stated in the text, strain not specified, 90% growth inhibition. The protocol: A series dilution of each compound in Mycoplasma growth medium was added to Mpn cultures in 96-well plates. The plates were sealed and incubated at 37°C. Mpn growth was monitored by using growth index value e.g. the ratio of absorbance at 450 nm and 560 nm of the culture medium. Thirty nucleoside and nucleobase analogs and a nucleoside transporter inhibitor were included, and two Mpn strains, wild type and a thyA mutant (lacking TS activity), were used.
Nucleoside and nucleobase analogs were dissolved in dimethyl sulfoxide (DMSO) as stock solutions and diluted with Mpn culture medium to the desired concentration immediately prior to use.
Mpn laboratory strain M129 wild type and a thyA mutant strain [31] were used in this study. Mpn was cultured at 37°C in a CO2 incubator using 75 cm^2 tissue culture flasks containing 50 ml Hayflick’s medium, and harvested at day 4 when the medium color change was observed. The cells were harvested and the pellet was resuspended in 6 ml fresh medium and the cfu/ml was determined by serial dilution (10-fold) and plating on broth agar plate. Colonies was counted and cfu/ml was calculated.
Inhibition studies were performed in 96-well plates containing 200 μl Mpn culture (approximately 10^6 cfu ml^-1) in Hayflick’s medium and 200 μl each compound in series dilutions (2-fold) with the growth medium, with three to four replicas. The plates were sealed with clear adhesive sheets and incubated at 37°C incubator. Absorbance ratio at 450 nm and 560 nm was used as Mpn growth index, which was measured daily, and by visual detection for at least 8 days, as previously described. […] The MICs (minimal inhibitory concentration required to inhibit Mpn growth to 90%) were determined as the lowest concentration at which the growth index was ≈ 10% of the control values (at the time when the control culture medium color turned yellow), essentially as described.

In another test the target is T1, Ureaplasma TK (Ureaplasma parvum serovar 3, UniProt Q9PPP5).
T1 construct: made in house
T1 sequence (Q9PPP5 1-223): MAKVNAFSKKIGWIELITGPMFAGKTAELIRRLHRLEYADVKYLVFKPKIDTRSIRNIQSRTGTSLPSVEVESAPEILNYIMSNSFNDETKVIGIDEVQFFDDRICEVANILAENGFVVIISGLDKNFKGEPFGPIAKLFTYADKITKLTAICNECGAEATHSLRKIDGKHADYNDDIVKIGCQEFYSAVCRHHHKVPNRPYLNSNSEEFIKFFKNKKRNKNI
Description: TFT phosphorylation kinetics, phosphoryl transfer assay. The note with it: 100 μM [γ-32P]-ATP. Format: biochemical. The protocol:
(§1) Figure 3 Substrate saturation curves of TFT with human TK2 (A), human TK1 (B), and Ureaplasma TK (C). Kinetic assays with TFT were performed by using [γ-^32P]-ATP as the labelled substrate at fixed concentration and variable concentrations of TFT. The reaction products were separated by thin layer chromatography, and quantified as described in the experimental procedures.
(§2) Kinetic parameters for TFT were determined by using the phosphoryl transfer assays as previously described. Briefly, each reaction was performed in a total volume of 20 μl containing 50 mM Tris/HCl, pH 7.5, 0.5 mg/ml BSA, 5 mM DTT, 2 mM MgCl2, 15 mM NaF, variable concentrations of TFT, 0.1 mM [γ-^32P]-ATP, and 50 ng purified enzyme at 37°C for 20 min, and stopped by heating at 70°C for 2 min. After brief centrifugation, 1 μl supernatant was spotted onto a TLC plate (PEI-cellulose, Merck) and dried. The TLC plates were developed in isobutyric acid/ammonia/H2O (66:1:33). The reaction products were visualized and quantified by phosphoimaging analysis (Quantity One, Bio-Rad).

In a further test the target is T2, human TK2 (Homo sapiens, UniProt O00142).
T2 construct: made in house
T2 sequence (O00142 34-265): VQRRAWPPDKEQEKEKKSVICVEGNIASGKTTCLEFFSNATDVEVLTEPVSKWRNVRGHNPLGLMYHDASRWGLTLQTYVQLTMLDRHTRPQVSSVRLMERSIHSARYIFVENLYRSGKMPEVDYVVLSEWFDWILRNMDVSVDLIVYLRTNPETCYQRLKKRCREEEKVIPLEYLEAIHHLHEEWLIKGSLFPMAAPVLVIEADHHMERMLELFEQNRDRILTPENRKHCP
The description is as above. The note with it: 100 μM [γ-32P]-ATP. Format: biochemical. The protocol:
as §1, §2

The target of a further test is T3, human TK1 (Homo sapiens, UniProt P04183).
T3 construct: made in house
T3 sequence (P04183 1-234): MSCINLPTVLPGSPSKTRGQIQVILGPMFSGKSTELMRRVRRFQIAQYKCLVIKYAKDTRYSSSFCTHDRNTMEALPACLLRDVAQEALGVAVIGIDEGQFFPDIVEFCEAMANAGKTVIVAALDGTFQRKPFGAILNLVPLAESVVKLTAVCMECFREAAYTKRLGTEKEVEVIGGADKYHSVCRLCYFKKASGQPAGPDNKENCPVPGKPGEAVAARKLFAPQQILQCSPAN
Described as above. In kind it is biochemical. The note with it: 100 μM [γ-32P]-ATP. The protocol: as §1, §2

Take `O=c1[nH]c(=O)n([C@H]2C[C@H](O)[C@@H](CO)O2)cc1C(F)(F)F` [Trifluorothymidine (TFT), Trifluorothymidine]: the “MIC (Mpn growth)” value in test [1] (listed as trifluorothymidine) is “approximately 2 μg ml^-1”; in test [1] (listed as trifluorothymidine (TFT)), 1.8 µg/mL (≈ 6.08 µM). Besides, the “Wild type MIC” value in test [1] (minimal concentration producing 90% inhibition, wild type Mpn) was found to be 1.8 µg/mL. Besides, the turnover number (kcat) worked out at 0.055 ± 0.008 s⁻¹ at Ureaplasma TK, 0.026 ± 0.003 s⁻¹ on human TK2 and 0.043 ± 0.003 s⁻¹ on human TK1. Moreover, the Km on Ureaplasma TK (TFT 1 – 100 μM) came out at 9.9 ± 5.2 µM; at human TK2 (TFT 1 – 100 μM), 8.8 ± 3.8 µM; on human TK1 (TFT 1 – 100 μM), 5.9 ± 1.7 µM.

Values taken from paper PMC3750255, “Inhibition of Mycoplasma pneumoniae growth by FDA-approved anticancer and antiviral nucleoside and nucleobase analogs” (BMC Microbiology, 2013).
